From patent US20100048462A1, “TRUNCATED PTH PEPTIDES WITH A CYCLIC CONFORMATION” (Zealand Pharma A/S, priority 2006, published 2010)
Bridge positions count the residues as written; N and C are the ends. Square brackets hold non-standard residues; d marks the D form. Peptide text beside a SMILES is read from it. I, II: the chains in the order shown. hArg = N=C(N)NCCCC[C@H](N)C(=O)O; Ac6c = NC1(C(=O)O)CCCCC1; Ac5c = NC1(C(=O)O)CCCC1; Nva = CCC[C@H](N)C(=O)O; Aib = CC(C)(N)C(=O)O

Molecular target: T1, Saos-2 PTH1R (Homo sapiens, UniProt Q03431)
T1 construct: endogenous in cells; host or cells: Saos-2
T1 sequence (Q03431 27-593): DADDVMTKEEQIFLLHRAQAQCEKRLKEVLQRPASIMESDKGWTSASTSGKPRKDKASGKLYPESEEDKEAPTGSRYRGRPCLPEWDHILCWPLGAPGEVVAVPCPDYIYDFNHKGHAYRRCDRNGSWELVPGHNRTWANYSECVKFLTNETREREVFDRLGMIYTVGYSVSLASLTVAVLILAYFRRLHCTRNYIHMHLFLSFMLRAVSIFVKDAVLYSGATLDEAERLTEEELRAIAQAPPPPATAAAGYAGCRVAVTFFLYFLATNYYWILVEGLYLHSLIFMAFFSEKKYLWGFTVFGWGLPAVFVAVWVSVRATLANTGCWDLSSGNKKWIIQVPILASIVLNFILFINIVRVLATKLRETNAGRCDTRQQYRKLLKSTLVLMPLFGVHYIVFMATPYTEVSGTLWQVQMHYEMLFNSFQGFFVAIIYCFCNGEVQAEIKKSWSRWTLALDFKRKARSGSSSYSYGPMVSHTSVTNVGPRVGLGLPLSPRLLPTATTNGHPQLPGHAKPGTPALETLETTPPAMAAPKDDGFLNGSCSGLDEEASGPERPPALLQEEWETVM
Test: cAMP-efficacy assay in Saos-2 cells
Assay type: cell-based
Details: for Emax ± SEM: relative effect to the control (SEQ ID NO: 32); for EC50: cAMP, 100 μM IBMX, 37° C. 15 min, suffix of label = salt tested
Method: Peptides were dissolved in phosphate buffered saline and further diluted in Tyrode's buffer (TB, Sigma-Aldrich) containing 0.1% BSA and 100 μM isobutyl-methyl-xanthine (IBMX, Sigma-Aldrich). Saos-2 cells were seeded at 50,000 cells/well in 96-microtiter plates and grown for two days before the efficacy assays. On the day of analysis, the growth medium was carefully removed by suction. Cells were washed once with 200 μl TB/0.1% BSA. The buffer was replaced with 100 μl reaction mixture (±test peptide), and incubated at 37° C. for 15 min. The reaction was stopped by addition of 25 μl of ice-cold 0.5 M HCl. Cells were in the following incubated on ice for 60 min. 75 μl acetate-buffer, pH6.2, was added to each well of a 96-well cAMP FlashPlate (Perkin-Elmer). […] FlashPlates were incubated overnight at 4° C., emptied by suction and counted in a TopCounter (Packard).
Determinations were performed in single determinations or triplicates at all doses. […] Standards were included as single determinations, duplicates or triplicates in each experiment, preferentially on each plate.
Concentration-dependent cAMP responses were imported into GraphPad Prism vers. 4 (GraphPad Software), transformed and plotted. […] Thus, a four-parameter logistic equation was used for determination of the EC50 values. Curves were fitted with a function for sigmoidal dose response curve (variable slope) non-linear fit Y=Bottom+(Top-Bottom)/(1+10̂((LogEC50−X)*HillSlope)) where X is the logarithm of concentration and Y is the response. Y starts at Bottom and goes to Top with a sigmoid shape. pEC50, Hill-coefficient and the maximally inducible concentration of cAMP (Emax) were evaluated.
Overall statistical differences were analyzed with Statistica (Statsoft) using one-way ANOVA. Post-hoc comparisons were made by the use of Fisher's Least Significance Test. Results were considered significant, when p was lower than 0.05.

SMILES | Emax ± SEM | EC50
CC[C@H](C)[C@H](NC(=O)[C@H](CCC(=O)O)NC(=O)C(C)(C)NC(=O)[C@@H](NC(=O)C1(N)CCCC1)C(C)C)C(=O)N[C@@H](CCC(N)=O)C(=O)N[C@@H](CC(C)C)C(=O)N[C@@H](CCSC)C(=O)N[C@@H](Cc1c[nH]cn1)C(=O)N[C@@H](CCC(N)=O)C(=O)N[C@@H](CCCCNC(=N)N)C(=O)N[C@@H](C)C(=O)N[C@H]1CCCCNC(=O)C[C@@H](C(N)=O)NC(=O)[C@H](CC(N)=O)NC(=O)[C@H](CC(C)C)NC(=O)[C@H](Cc2c[nH]c3ccccc23)NC(=O)[C@@H](NC(=O)[C@H](C)NC(=O)[C@H](CCCCNC(=N)N)NC(=O)[C@H](CCC(N)=O)NC(=O)[C@H](Cc2c[nH]cn2)NC(=O)[C@H](CCSC)NC(=O)[C@H](CC(C)C)NC(=O)[C@H](CCC(N)=O)NC(=O)[C@@H](NC(=O)[C@H](CCC(=O)O)NC(=O)C(C)(C)NC(=O)[C@@H](NC(=O)C2(N)CCCC2)C(C)C)[C@@H](C)CC)CCCCNC(=O)C[C@@H](C(N)=O)NC(=O)[C@H](CC(N)=O)NC(=O)[C@H](CC(C)C)NC(=O)[C@H](Cc2c[nH]c3ccccc23)NC1=O [SEQ ID NO: 39, (H-Ac5c-Val-Aib-Glu-Ile-Gln-Leu-Met-His-Gln-Har-Ala-Lys( )-Trp-Leu-Asn-Asp( )-NH2)2] (I: H-[Ac5c]V[Aib]EIQLMHQ[hArg]AKWLND-NH2 / II: H-[Ac5c]V[Aib]EIQLMHQ[hArg]AKWLND-NH2; amide I:13-II:17, I:17-II:13) | 0.95 ± 0.05 | –
CC[C@H](C)[C@H](NC(=O)[C@H](CCC(=O)O)NC(=O)C(C)(C)NC(=O)[C@@H](NC(=O)C1(N)CCCC1)C(C)C)C(=O)N[C@@H](CCC(N)=O)C(=O)N[C@@H](Cc1ccccc1)C(=O)N[C@@H](CC(C)C)C(=O)N[C@@H](Cc1c[nH]cn1)C(=O)N[C@@H](CCC(N)=O)C(=O)N[C@@H](CCCCNC(=N)N)C(=O)N[C@@H](C)C(=O)N[C@H]1CCCCNC(=O)C[C@@H](C(N)=O)NC(=O)[C@H](CC(N)=O)NC(=O)[C@H](CC(C)C)NC(=O)[C@H](Cc2c[nH]c3ccccc23)NC1=O [SEQ ID NO: 27, H-Ac5c-Val-Aib-Glu-Ile-Gln-Phe-Leu-His-Gln-Har-Ala-Lys( )-Trp-Leu-Asn-Asp( )-NH2] (H-[Ac5c]V[Aib]EIQFLHQ[hArg]AKWLND-NH2; lactam 13-17) | 0.92 ± 0.06 | 12.3 nM
CC[C@H](C)[C@H](NC(=O)[C@H](CCC(=O)O)NC(=O)C(C)(C)NC(=O)[C@@H](NC(=O)C1(N)CCCC1)C(C)C)C(=O)N[C@@H](CCC(N)=O)C(=O)N[C@@H](CC(C)C)C(=O)N[C@@H](CCSC)C(=O)N[C@@H](Cc1c[nH]cn1)C(=O)N[C@@H](CCC(N)=O)C(=O)N[C@@H](CCCNC(=N)N)C(=O)N[C@@H](C)C(=O)N[C@H]1CCCCNC(=O)C[C@@H](C(N)=O)NC(=O)[C@H](CC(N)=O)NC(=O)[C@H](CC(C)C)NC(=O)[C@H](Cc2c[nH]c3ccccc23)NC1=O [SEQ ID NO: 25] (H-[Ac5c]V[Aib]EIQLMHQRAKWLND-NH2; lactam 13-17) | 1.04 ± 0.03 | 8.91 nM
CC[C@H](C)[C@H](NC(=O)[C@H](CCC(=O)O)NC(=O)C(C)(C)NC(=O)[C@@H](NC(=O)C1(N)CCCCC1)C(C)C)C(=O)N[C@@H](CCC(N)=O)C(=O)N[C@@H](CC(C)C)C(=O)N[C@@H](CC(C)C)C(=O)N[C@@H](Cc1c[nH]cn1)C(=O)N[C@@H](CCC(N)=O)C(=O)N[C@@H](CCCCNC(=N)N)C(=O)N[C@@H](C)C(=O)N[C@H]1CCCCNC(=O)C[C@@H](C(N)=O)NC(=O)[C@H](CC(N)=O)NC(=O)[C@H](CC(C)C)NC(=O)[C@H](Cc2c[nH]c3ccccc23)NC1=O [SEQ ID NO: 10, H-Ac6c-Val-Aib-Glu-Ile-Gln-Leu-Leu-His-Gln-Har-Ala-Lys( )-Trp-Leu-Asn-Asp( )-NH2] (H-[Ac6c]V[Aib]EIQLLHQ[hArg]AKWLND-NH2; lactam 13-17) | 1.08 ± 0.06 | 12.6 nM
CC[C@H](C)[C@H](NC(=O)[C@H](CCC(=O)O)NC(=O)C1(NC(=O)[C@@H](NC(=O)C2(N)CCCC2)C(C)C)CCCC1)C(=O)N[C@@H](CCC(N)=O)C(=O)N[C@@H](CC(C)C)C(=O)N[C@@H](CC(C)C)C(=O)N[C@@H](Cc1c[nH]cn1)C(=O)N[C@@H](CCC(N)=O)C(=O)N[C@@H](CCCCNC(=N)N)C(=O)N[C@@H](C)C(=O)N[C@H]1CCCCNC(=O)C[C@@H](C(N)=O)NC(=O)[C@H](CC(N)=O)NC(=O)[C@H](CC(C)C)NC(=O)[C@H](Cc2c[nH]c3ccccc23)NC1=O [SEQ ID NO: 14, H-Ac5c-Val-Ac5c-Glu-Ile-Gln-Leu-Leu-His-Gln-Har-Ala-Lys( )-Trp-Leu-Asn-Asp( )-NH2] (H-[Ac5c]V[Ac5c]EIQLLHQ[hArg]AKWLND-NH2; lactam 13-17) | 1.03 ± 0.05 | 35.5 nM
CC[C@H](C)[C@H](NC(=O)[C@H](CCC(=O)O)NC(=O)C(C)(C)NC(=O)[C@@H](NC(=O)C1(N)CCCC1)C(C)C)C(=O)N[C@@H](CCC(N)=O)C(=O)N[C@@H](CC(C)C)C(=O)N[C@@H](CCSC)C(=O)N[C@@H](Cc1c[nH]cn1)C(=O)N[C@@H](CC(N)=O)C(=O)N[C@@H](CC(C)C)C(=O)NCC(=O)N[C@@H](CCCCN)C(=O)N[C@@H](Cc1c[nH]cn1)C(=O)N[C@@H](CC(C)C)C(=O)N[C@@H](CC(N)=O)C(=O)N[C@@H](CO)C(N)=O [SEQ ID NO: 35] (H-[Ac5c]V[Aib]EIQLMHNLGKHLNS-NH2) | 1.20 ± 0.01 | 8130 nM
CC[C@H](C)[C@H](NC(=O)[C@H](CCC(=O)O)NC(=O)C(C)(C)NC(=O)[C@@H](NC(=O)C1(N)CCCC1)C(C)C)C(=O)N[C@@H](CCC(N)=O)C(=O)N[C@@H](CC(C)C)C(=O)N[C@@H](CCSC)C(=O)N[C@@H](Cc1c[nH]cn1)C(=O)N[C@@H](CCC(N)=O)C(=O)N[C@@H](CCCCNC(=N)N)C(=O)N[C@@H](C)C(=O)N[C@H]1CC(=O)NCCCC[C@@H](C(N)=O)NC(=O)[C@H](CC(N)=O)NC(=O)[C@H](CC(C)C)NC(=O)[C@H](Cc2c[nH]c3ccccc23)NC1=O [SEQ ID NO: 6, H-Ac5c-Val-Aib-Glu-Ile-Gln-Leu-Met-His-Gln-Har-Ala-Asp( )-Trp-Leu-Asn-Lys( )-NH2] (H-[Ac5c]V[Aib]EIQLMHQ[hArg]ADWLNK-NH2; lactam 13-17) | 1.5 | 126 nM
CC[C@H](C)[C@H](NC(=O)[C@H](CCC(=O)O)NC(=O)C(C)(C)NC(=O)[C@@H](NC(=O)C1(N)CCCC1)C(C)C)C(=O)N[C@@H](CCC(N)=O)C(=O)N[C@@H](CC(C)C)C(=O)N[C@@H](CC(C)C)C(=O)N[C@@H](Cc1c[nH]cn1)C(=O)N[C@@H](CCC(N)=O)C(=O)N[C@@H](CCCCNC(=N)N)C(=O)N[C@@H](CCCNC(=N)N)C(=O)N[C@H]1CCCCNC(=O)C[C@@H](C(N)=O)NC(=O)[C@H](CC(N)=O)NC(=O)[C@H](CC(C)C)NC(=O)[C@H](Cc2c[nH]c3ccccc23)NC1=O [SEQ ID NO: 28, H-Ac5c-Val-Aib-Glu-Ile-Gln-Leu-Leu-His-Gln-Har-Arg-Lys( )-Trp-Leu-Asn-Asp( )-NH2] (H-[Ac5c]V[Aib]EIQLLHQ[hArg]RKWLND-NH2; lactam 13-17) | 0.95 ± 0.06 | 5.37 nM
CCC[C@H](N)C(=O)N[C@H](C(=O)NC(C)(C)C(=O)N[C@@H](CCC(=O)O)C(=O)N[C@H](C(=O)N[C@@H](CCC(N)=O)C(=O)N[C@@H](CC(C)C)C(=O)N[C@@H](CC(C)C)C(=O)N[C@@H](Cc1c[nH]cn1)C(=O)N[C@@H](CCC(N)=O)C(=O)N[C@@H](CCCCNC(=N)N)C(=O)N[C@@H](C)C(=O)N[C@H]1CCCCNC(=O)C[C@@H](C(N)=O)NC(=O)[C@H](CC(N)=O)NC(=O)[C@H](CC(C)C)NC(=O)[C@H](Cc2c[nH]c3ccccc23)NC1=O)[C@@H](C)CC)C(C)C [SEQ ID NO: 12, H-Nva-Val-Aib-Glu-Ile-Gln-Leu-Leu-His-Gln-Har-Ala-Lys( )-Trp-Leu-Asn-Asp( )-NH2] (H-[Nva]V[Aib]EIQLLHQ[hArg]AKWLND-NH2; lactam 13-17) | 1.04 ± 0.03 | 102 nM
